Measured values reported in PMC10488193, “Evaluation of the Chemical Stability, Membrane Permeability and Antiproliferative Activity of Cyclic Diarylheptanoids from European Hornbeam (Carpinus betulus L.)” (International Journal of Molecular Sciences, 2023).
“Also recorded” adds a separate entry of the source. Marks after values point to notes of the source that are not given here.

Experiments:
PAMPA-GI = format: in vitro ADME; details: PAMPA; read-out: logPe PAMPA-GI (n = 9) (converted)
Procedure: A parallel artificial membrane permeability assay (PAMPA) was used to determine the effective permeability (Pe) for the Carpinus diarylheptanoids. Stock solutions of the isolated compounds (10 mM in DMSO) were diluted with the defined buffer (pH 7.4 for the PAMPA-BBB and pH 6.8 for the PAMPA-GI assays) to obtain the donor solutions (composition: 297.0 μL buffer + 3.0 μL stock solution). Donor solutions were filtered through Phenex-RC 15 mm, 0.2 μm syringe filters (Gen-Lab Ltd., Budapest, Hungary).
For the PAMPA-BBB test, 5 μL of porcine polar brain lipid extract (PBLE) solution (16.0 mg PBLE + 8.0 mg cholesterol dissolved in 600.0 μL n-dodecane) was applied for each well of the 96-well polycarbonate-based filter donor plates (top plate) (Multiscreen™-IP, MAIPN4510, pore size 0.45 μm; Merck). For the PAMPA-GI assay, the wells of the top plate were coated with 5 μL of the mixture of 8.0 mg phosphatidylcholine + 4.0 mg cholesterol dissolved in 300.0 μL n-dodecane. The 150.0 μL aliquots of the filtrated donor solutions were placed on the membrane. The 96-well PTFE acceptor plates (bottom plates) (Multiscreen Acceptor Plate, MSSACCEPTOR; Merck), were filled with 300.0 μL buffer solution (0.01 M PBS buffer, pH 7.4). […]
After the incubation, the plates were separated and the compound concentrations in the donor (CD(t)) and acceptor (CA(t)) solutions were determined using the aforementioned UHPLC-DAD method (see Section 3.4). […] The effective permeability and the membrane retention in the PAMPA-BBB and the PAMPA GI experiments were calculated by Equations (3) and (4), respectively:(3) Pe=−2.303/A(t−τSS)·VA·VD/VA+VD·lg1−VA+VD/1−MR·VD×CAt/CD0 (4) Pe=−2.303/A(t−τSS))·1/1+ra·lg−ra+1+ra/1−MR×CDt/CD0 where Pe is the effective permeability coefficient (cm/s), A is the filter area (0.24 cm^2), VD and VA are the volumes in the donor (0.15 cm^3) and acceptor phases (0.30 cm^3), t is the incubation time (s), τSS is the time (s) to reach steady state (240 s), CD(t) is the concentration (mol/cm^3) of the compound in the donor phase at time t, CD(0) is the concentration (mol/cm^3) of the compound in the donor phase at time 0, MR is the estimated membrane retention factor (the estimated mole fraction of solute lost to the membrane) and ra is the sink asymmetry ratio (gradient-pH-induced), defined as:(5) ra=VD/VA×Pe(A→D)/Pe(D→A) (6) MR=1−CDt/CD0−VA/VDCAt/CD0
All experiments were performed in three triplicates on three consecutive days (n = 9); caffeine standard was used as positive, while rutin was used as negative control. Clog P values were calculated using ACD/ChemSketch (Freeware) 2 January 2020 (Advanced Chemistry Development, Inc., Toronto, ON, Canada).

[1] = Storage stability in solutions and hornbeam bark extracts (UHPLC-DAD); format: physicochemical; details: for k / t1/2: storage 23 weeks
Procedure: For the analysis of the samples from the chemical stability as well as the PAMPA studies, sample concentrations were determined using our previously developed ultrahigh-performance liquid chromatography–diode array detection (UHPLC-DAD) method validated for linearity, precision and accuracy. Briefly, an ACQUITY UPLC H-Class PLUS System hyphenated with a quaternary solvent delivery pump (QSM), an auto-sampler manager (FTN), a column compartment (CM) and a photodiode array (PDA) detector (Waters Corporation) was employed. Stationary phase: Acquity BEH C18 column (100 × 2.1 mm i.d., 1.7 µm; Waters Corporation), column temperature: 30 °C. The mobile phase consisted of 0.3% acetic acid in water (eluent A) and acetonitrile (eluent B). The following gradient elution was applied at a flow rate of 0.3 mL/min: 0 min 12.0% B, 19.0 min 13.5% B, 25.5 min 75.0% B, 26.0 min 100.0% B, 28.0 min 100.0% B, 28.5 min 12.0% B.
We used the following equations to calculate the first-order reaction rate constant (k) and the half-life (t1/2) indicating the time required to reduce the concentration of diarylheptanoids by 50% [29]:ln (ct/c0) = −k × t(1) t1/2 = −ln 0.5 × k^−1(2) where ct is the concentration of the diarylheptanoids at time t, c0 is the initial concentration, k is the reaction rate constant, t is the treatment time.
The chemical stability of the isolated compounds in solutions was examined at a concentration of 50 µg/mL in methanol and water (in the latter case using methanol as co-solvent, final composition: water-methanol 90:10, v/v). Furthermore, the methanol and ethyl acetate extracts of C. betulus bark (concentration 4 mg/mL) were also studied in order to assess the effects of the accompanying substances. The storage stability studies were performed at a neutral pH value. All solutions were filtered through Phenex-RC 15 mm, 0.2 μm syringe filters (Gen-Lab Ltd., Budapest, Hungary). The samples were prepared in triplicate and stored protected from light at 22 ± 2.0 °C, 5 ± 1.5 °C and −15 ± 2.0 °C for 23 weeks. Quantities of the analytes of interest were quantified at weeks 12 and 23 using the abovementioned UHPLC-DAD method (see Section 3.4).
The effects of the temperature and the medium (i.e., solvent and accompanying substances) were analysed through one-way analysis of variance (ANOVA) followed by Tukey’s post hoc HSD test (p < 0.05). To establish the kinetic parameters t1/2 and k, Equations (1) and (2) were applied, respectively.

[2] = 12 weeks, 5 °C, EE (ethyl acetate extract of bark)
[3] = 12 weeks, 5 °C, EM (methanol extract of bark)
[4] = 12 weeks, 5 °C, SA (aqueous solution)
[5] = 12 weeks, 5 °C, SM (methanol solution)
[6] = 12 weeks, 22 °C, EE (ethyl acetate extract of bark)
[7] = 12 weeks, 22 °C, EM (methanol extract of bark)
[8] = 12 weeks, 22 °C, SA (aqueous solution)
[9] = 12 weeks, 22 °C, SM (methanol solution)
[10] = 12 weeks, −15 °C, EE (ethyl acetate extract of bark)
[11] = 12 weeks, −15 °C, EM (methanol extract of bark)
[12] = 12 weeks, −15 °C, SA (aqueous solution)
[13] = 12 weeks, −15 °C, SM (methanol solution)
[14] = 23 weeks, 5 °C, EE (ethyl acetate extract of bark)
[15] = 23 weeks, 5 °C, EM (methanol extract of bark)
[16] = 23 weeks, 5 °C, SA (aqueous solution)
[17] = 23 weeks, 5 °C, SM (methanol solution)
[18] = 23 weeks, 22 °C, EE (ethyl acetate extract of bark)
[19] = 23 weeks, 22 °C, EM (methanol extract of bark)
[20] = 23 weeks, 22 °C, SA (aqueous solution)
[21] = 23 weeks, 22 °C, SM (methanol solution)
[22] = 23 weeks, −15 °C, EE (ethyl acetate extract of bark)
[23] = 23 weeks, −15 °C, EM (methanol extract of bark)
[24] = 23 weeks, −15 °C, SA (aqueous solution)
[25] = 23 weeks, −15 °C, SM (methanol solution)

O=C1CCc2ccc(O)c(c2)-c2cc(ccc2O)C[C@H](O)[C@H](O)[C@H]1O [Compound 2, carpinontriol B]
Papp at 4 h, 100 µM (PAMPA-GI): 3.47 ×10⁻⁶ cm/s
concentration as compared to the initial value [1, 2]: 99.5 ± 0.4 ^#a %
concentration as compared to the initial value [1, 3]: 99.9 ± 0.8 ^a %
concentration as compared to the initial value [1, 4]: 99.9 ± 0.4 ^a %
concentration as compared to the initial value [1, 5]: 99.4 ± 0.6 ^a %
concentration as compared to the initial value [1, 6]: 100.2 ± 0.7 ^a %
concentration as compared to the initial value [1, 7]: 101.1 ± 1.1 ^a %
concentration as compared to the initial value [1, 8]: 100.4 ± 1.1 ^a %
concentration as compared to the initial value [1, 9]: 99.7 ± 0.4 ^a %
concentration as compared to the initial value [1, 10]: 100.1 ± 0.7 ^a %
concentration as compared to the initial value [1, 11]: 99.8 ± 0.7 ^a %
concentration as compared to the initial value [1, 12]: 99.1 ± 1.3 ^a %
concentration as compared to the initial value [1, 13]: 99.1 ± 1.3 ^a %
concentration as compared to the initial value [1, 14]: 100.1 ± 0.4 ^a %
concentration as compared to the initial value [1, 15]: 99.2 ± 1.2 ^a %
concentration as compared to the initial value [1, 16]: 99.9 ± 0.5 ^a %
concentration as compared to the initial value [1, 17]: 99.2 ± 0.5 ^a %
concentration as compared to the initial value [1, 18]: 99.7 ± 0.5 ^a %
concentration as compared to the initial value [1, 19]: 99.7 ± 0.3 ^#a %
concentration as compared to the initial value [1, 20]: 99.8 ± 0.9 ^a %
concentration as compared to the initial value [1, 21]: 99.9 ± 0.6 ^a %
concentration as compared to the initial value [1, 22]: 99.8 ± 0.4 ^a %
concentration as compared to the initial value [1, 23]: 99.6 ± 0.7 ^a %
concentration as compared to the initial value [1, 24]: 99.1 ± 1.2 ^a %
concentration as compared to the initial value [1, 25]: 99.1 ± 1.2 ^a %
storage stability in methanol and aqueous solutions (in words) ([1]; SM and SA, −15, 5, 22 °C, weeks 12 and 23): stable; also recorded: good stability

O=C1C[C@H](O)[C@@H](O)Cc2ccc(O)c(c2)-c2cc(ccc2O)C[C@H]1O [Compound 1, carpinontriol A]
Papp at 4 h, 100 µM (PAMPA-GI): 0.562 ×10⁻⁶ cm/s
k ([1]; 5 °C, SA (aqueous solution)): 4.47 × 10^−3 Week^−1
t1/2 ([1]; 5 °C, SA (aqueous solution)): 147.48 Week
k ([1]; 5 °C, SM (methanol solution)): 1.40 × 10^−2 Week^−1
concentration as compared to the initial value [1, 2]: 104.6 ± 1.0 ^#bcg %
concentration as compared to the initial value [1, 3]: 110.1 ± 6.2 ^bc %
concentration as compared to the initial value [1, 4]: 91.4 ± 0.2 ^#def %
concentration as compared to the initial value [1, 5]: 90.8 ± 2.3 ^#def %
concentration as compared to the initial value [1, 6]: 110.9 ± 3.6 ^#bc %
concentration as compared to the initial value [1, 7]: 114.0 ± 2.2 ^#b %
concentration as compared to the initial value [1, 8]: 61.7 ± 5.7 ^#a %
concentration as compared to the initial value [1, 9]: 63.5 ± 8.7 ^#a %
concentration as compared to the initial value [1, 10]: 100.5 ± 0.5 ^ceg %
concentration as compared to the initial value [1, 11]: 108.7 ± 1.5 ^#bc %
concentration as compared to the initial value [1, 12]: 93.5 ± 0.4 ^#ef %
concentration as compared to the initial value [1, 13]: 94.0 ± 0.8 ^#efg %
k ([1]; 22 °C, SA (aqueous solution)): 5.97 × 10^−2 Week^−1
t1/2 ([1]; 22 °C, SA (aqueous solution)): 11.61 Week
k ([1]; 22 °C, SM (methanol solution)): 4.53 × 10^−2 Week^−1
t1/2 ([1]; 22 °C, SM (methanol solution)): 15.30 Week
concentration as compared to the initial value [1, 14]: 92.1 ± 1.3 ^#def %
concentration as compared to the initial value [1, 15]: 84.1 ± 1.1 ^#dfi %
concentration as compared to the initial value [1, 16]: 87.2 ± 0.4 ^#dfi %
concentration as compared to the initial value [1, 17]: 67.1 ± 7.5 ^#aj %
concentration as compared to the initial value [1, 18]: 81.5 ± 3.9 ^#di %
concentration as compared to the initial value [1, 19]: 77.7 ± 2.9 ^#ij %
concentration as compared to the initial value [1, 20]: 23.0 ± 0.5 ^#h %
concentration as compared to the initial value [1, 21]: 32.3 ± 6.3 ^#h %
concentration as compared to the initial value [1, 22]: 91.3 ± 4.2 ^#def %
concentration as compared to the initial value [1, 23]: 88.3 ± 3.4 ^#dfi %
concentration as compared to the initial value [1, 24]: 93.7 ± 0.3 ^#efg %
concentration as compared to the initial value [1, 25]: 88.9 ± 3.1 ^#dfi %
k ([1]; −15 °C, SA (aqueous solution)): 1.70 × 10^−3 Week^−1
t1/2 ([1]; −15 °C, SA (aqueous solution)): 407.73 Week
k ([1]; −15 °C, SM (methanol solution)): 3.60 × 10^−3 Week^−1
t1/2 ([1]; −15 °C, SM (methanol solution)): 192.54 Week
